Reference: ChEMBL document CHEMBL4715700, “Growth inhibitory effect of D-arabinose against the nematode Caenorhabditis elegans: Discovery of a novel bioactive monosaccharide” (Bioorg Med Chem Lett, 2016)
The source made the active and inactive calls. No cut-off for these calls is given here.

Tests used:
Caenorhabditis elegans [1] = assay: Growth inhibition of Caenorhabditis elegans N2 L1 larvae under monoxenic condition with Escherichia coli food assessed as reduction in body size at 42 mM incubated for 72 hrs by microscopic method relative to control; type: functional
Caenorhabditis elegans [2] = assay: Growth inhibition of Caenorhabditis elegans N2 L1 larvae under axenic condition assessed as reduction in body size at 16 mM incubated for 7 days by microscopic method relative to control; type: functional; design: scale not given: the % may be the effect or the level left; settings: time 7 day
Caenorhabditis elegans [3] = assay: Growth inhibition of Caenorhabditis elegans N2 L1 larvae under monoxenic condition with Escherichia coli food assessed as reduction in motility at 42 mM incubated for 72 hrs by microscopic method relative to control; type: functional, organism-based
[4] = Toxicity in Caenorhabditis elegans N2 under monoxenic condition with Escherichia coli food assessed as mortality at 42 mM incubated for 72 hrs by microscopic method relative to control; settings: 42000 µM
Caenorhabditis elegans [5] = assay: Growth inhibition of Caenorhabditis elegans N2 L1 larvae under monoxenic condition assessed as reduction in body size at 42 mM incubated for 72 hrs by microscopic method relative to control; type: functional, organism-based; settings: for IC50: N2, 72 h
Caenorhabditis elegans [6] = assay: Growth inhibition of Caenorhabditis elegans N2 assessed as reduction in body size at 10 mM in presence of D-ribose by microscopic method; type: functional, organism-based
Caenorhabditis elegans [7] = assay: Growth inhibition of Caenorhabditis elegans N2 assessed as reduction in body size at 10 mM in presence of 125 mM D-glucose by microscopic method; type: functional, organism-based
Caenorhabditis elegans [8] = assay: Growth inhibition of Caenorhabditis elegans N2 assessed as reduction in body size at 10 mM in presence of D-fructose by microscopic method; type: functional, organism-based

Row | Compound | Activity (Caenorhabditis elegans [1]) | further results
1 | OC[C@@H](O)C(O)[C@H](O)CO | inactive | –
2 | OC1OC[C@H](O)[C@H](O)[C@H]1O (stereo partly drawn) | inactive | –
3 | OC1OC[C@@H](O)[C@@H](O)[C@@H]1O (stereo partly drawn) [D-ARABINOSE] | 7.8% | Activity (Caenorhabditis elegans [2]): 15.2%; Activity (Caenorhabditis elegans [3]): Active; Activity [4]: Non-Toxic; Activity (Caenorhabditis elegans [5]): Dose-dependent effect; IC50 (Caenorhabditis elegans [5]): 7.5 mM; Activity (Caenorhabditis elegans [6]): inactive; Activity (Caenorhabditis elegans [7]): Active; Activity (Caenorhabditis elegans [8]): inactive
4 | OC1OC[C@H](O)[C@@H](O)[C@H]1O (stereo partly drawn) | inactive | –
5 | OC[C@@H]1OC(O)[C@@H](O)[C@H]1O (stereo partly drawn) | inactive | –
6 | OC[C@H]1OC(O)C[C@@H](O)[C@@H]1O (stereo partly drawn) | – | IC50 (Caenorhabditis elegans [5]): 19.5 mM
7 | OC1OC[C@@H](O)[C@H](O)[C@@H]1O (stereo partly drawn) | inactive | –
8 | OC1OC[C@H](O)[C@@H](O)[C@@H]1O (stereo partly drawn) | inactive | –
9 | O=C[C@H](O)[C@@H](O)[C@H](O)CO | inactive | –
10 | OC[C@H]1OC(O)[C@H](O)[C@@H]1O (stereo partly drawn) | inactive | –
